Results as given in PubChem BioAssay AID1259407 (Chemical Carcinogenesis Research Information System (CCRIS), 2018).
Active and inactive are the calls of the source. How the calls were made is not given here.

Test system: CCRIS mutagenicity, Ames/micronucleus/aberration tests
Test: CCRIS mutagenicity studies

In the case of CC(=O)Nc1ccc2c(c1)Cc1ccccc1-2, the mutagenic call (Test System: AMES SALMONELLA TYPHIMURIUM, Strain/Indicator: TA1537, Metabolic Activation: NONE, Method: STANDARD PLATE) is reported as “inactive; negative”, the mutagenic call (Test System: AMES SALMONELLA TYPHIMURIUM, Strain/Indicator: TA1537, Metabolic Activation: RAT, LIVER, S-9, AROCLOR 1254, Method: SPIRAL ASSAY) is reported as “inactive; negative” and the mutagenic call (Test System: AMES SALMONELLA TYPHIMURIUM, Strain/Indicator: TA1537, Metabolic Activation: RAT, LIVER, S-9, PHENOBARBITAL, Method: STANDARD PLATE) is reported as “active; positive”. The mutagenic call (Test System: AMES SALMONELLA TYPHIMURIUM, Strain/Indicator: TA1538, Metabolic Activation: NONE, Method: STANDARD PLATE) was “inactive; negative”, the mutagenic call (Test System: AMES SALMONELLA TYPHIMURIUM, Strain/Indicator: TA1538, Metabolic Activation: RAT, LIVER, CYTOSOL, 2-ACETYLAMINOFLUORENE, Method: STANDARD PLATE) was “active; positive” and the mutagenic call (Test System: AMES SALMONELLA TYPHIMURIUM, Strain/Indicator: TA1538, Metabolic Activation: RAT, LIVER, CYTOSOL, AROCLOR 1254, Method: STANDARD PLATE) was “active; positive”. The mutagenic call (Test System: AMES SALMONELLA TYPHIMURIUM, Strain/Indicator: TA1538, Metabolic Activation: RAT, LIVER, CYTOSOL, Method: STANDARD PLATE) was “active; positive”, the mutagenic call (Test System: AMES SALMONELLA TYPHIMURIUM, Strain/Indicator: TA1538, Metabolic Activation: RAT, LIVER, MICROSOMES, 2-ACETYLAMINOFLUORENE, Method: STANDARD PLATE) was “active; positive” and the mutagenic call (Test System: AMES SALMONELLA TYPHIMURIUM, Strain/Indicator: TA1538, Metabolic Activation: RAT, LIVER, MICROSOMES, AROCLOR 1254, Method: STANDARD PLATE) was “active; positive”. For the same molecule, the mutagenic call (Test System: AMES SALMONELLA TYPHIMURIUM, Strain/Indicator: TA1538, Metabolic Activation: RAT, LIVER, MICROSOMES, Method: STANDARD PLATE) was “active; positive”, the mutagenic call (Test System: AMES SALMONELLA TYPHIMURIUM, Strain/Indicator: TA1538, Metabolic Activation: RAT, LIVER, S-9, AROCLOR 1254, Method: STANDARD PLATE) was “active; positive” and the mutagenic call (Test System: AMES SALMONELLA TYPHIMURIUM, Strain/Indicator: TA1538, Metabolic Activation: RAT, LIVER, S-9, KC500 OR PHENOBARBITAL, Method: LIQUID SUSPENSION) was “active; positive”. For the same molecule, the mutagenic call (Test System: AMES SALMONELLA TYPHIMURIUM, Strain/Indicator: TA1538, Metabolic Activation: RAT, LIVER, S-9, PHENOBARBITAL, Method: STANDARD PLATE) was “active; positive”, the mutagenic call (Test System: AMES SALMONELLA TYPHIMURIUM, Strain/Indicator: YG1024, Metabolic Activation: HUMAN, HEPATOMA CELLS, BENZO[A]ANTHRACENE, Method: PREINCUBATION) was “active; positive” and the mutagenic call (Test System: AMES SALMONELLA TYPHIMURIUM, Strain/Indicator: YG1024, Metabolic Activation: HUMAN, HEPATOMA CELLS, Method: PREINCUBATION) was “active; positive”. The mutagenic call (Test System: AMES SALMONELLA TYPHIMURIUM, Strain/Indicator: YG1024, Metabolic Activation: RAT, LIVER, S-9, AROCLOR 1254, Method: PREINCUBATION) was “active; positive”, the mutagenic call (Test System: AMES SALMONELLA TYPHIMURIUM, Strain/Indicator: YG1024, Metabolic Activation: RAT, LIVER, S-9, Method: PREINCUBATION) was “active; positive” and the mutagenic call (Test System: CHINESE HAMSTER OVARY, Strain/Indicator: AS52/6-THIOGUANINE, Metabolic Activation: NONE) was “inactive; negative”. For the same molecule, the mutagenic call (Test System: CHINESE HAMSTER OVARY, Strain/Indicator: AS52/6-THIOGUANINE, Metabolic Activation: RAT LIVER S-9, 2-ACETYLAMINOFLUORENE) was “active; positive”, the mutagenic call (Test System: CHINESE HAMSTER OVARY, Strain/Indicator: CHO-K1-BH4 (HGPRT), Metabolic Activation: RAT, LIVER, S-9, AROCLOR, Method: SUSPENSION/PLATE) was “active; positive” and the mutagenic call (Test System: CHINESE HAMSTER V-79, Strain/Indicator: V-79/6-THIOGUANINE, Metabolic Activation: HAMSTER, LIVER, S-9, AROCLOR 1254, Method: SUSPENSION/PLATE) was “inactive; negative”. For the same molecule, the mutagenic call (Test System: CHINESE HAMSTER V-79, Strain/Indicator: V-79/6-THIOGUANINE, Metabolic Activation: NONE, Method: SUSPENSION/PLATE) was “inactive; negative”, the mutagenic call (Test System: CHINESE HAMSTER V-79, Strain/Indicator: V-79/6-THIOGUANINE, Metabolic Activation: RAT, LIVER, S-9, PHENOBARBITAL AND BETA-NAPHTHOFLAVONE, Method: SUSPENSION/PLATE) was “inactive; negative” and the mutagenic call (Test System: E. COLI, Strain/Indicator: WP2 UVRA, Metabolic Activation: HAMSTER, LIVER, S-9, Method: STANDARD PLATE) was “inactive; negative”. For the same molecule, the mutagenic call (Test System: E. COLI, Strain/Indicator: WP2 UVRA, Metabolic Activation: MOUSE, LIVER, S-9, Method: STANDARD PLATE) was “inactive; negative”, the mutagenic call (Test System: E. COLI, Strain/Indicator: WP2 UVRA, Metabolic Activation: NONE, Method: STANDARD PLATE) was “inactive; negative” and the mutagenic call (Test System: E. COLI, Strain/Indicator: WP2 UVRA, Metabolic Activation: RAT, LIVER, S-9, AROCLOR 1254, Method: STANDARD PLATE) was “inactive; negative”. For the same molecule, the mutagenic call (Test System: E. COLI, Strain/Indicator: WP2 UVRA, Metabolic Activation: RAT, LIVER, S-9, Method: STANDARD PLATE) was “inactive; negative”, the mutagenic call (Test System: MOUSE LYMPHOMA, Strain/Indicator: L5178Y (TK+/TK-), Metabolic Activation: NONE, Method: SUSPENSION/PLATE) was “active; positive” and the mutagenic call (Test System: MOUSE LYMPHOMA, Strain/Indicator: L5178Y (TK+/TK-), Metabolic Activation: RAT, LIVER, S-9, AROCLOR 1254, Method: SUSPENSION/PLATE) was “active; positive”. For the same molecule, the mutagenic call (Test System: MOUSE LYMPHOMA, Strain/Indicator: L5178Y (TK+/TK-), Metabolic Activation: RAT, LIVER, S-9, Method: SUSPENSION/PLATE) was “active; positive”, the mutagenic call (Test System: UDS GUINEA PIG HEPATOCYTES, Strain/Indicator: THY INCORP, Metabolic Activation: NONE, Method: AUTORADIOGRAPHY) was “active; positive” and the mutagenic call (Test System: UDS GUINEA PIG HEPATOCYTES, Strain/Indicator: THY INCORP, Metabolic Activation: NONE, Method: LIQUID SCINTILLATION COUNTING) was “active; positive”. For the same molecule, the mutagenic call (Test System: UDS HAMSTER HEPATOCYTES, Strain/Indicator: THY INCORP, Metabolic Activation: NONE, Method: LIQUID SCINTILLATION COUNTING) was “active; positive”, the mutagenic call (Test System: UDS HUMAN FIBROBLASTS, Strain/Indicator: THY INCORP (NON-S-PHASE), Metabolic Activation: NONE, Method: AUTORADIOGRAPHY) was “active; positive” and the mutagenic call (Test System: UDS HUMAN HEPATOCYTES, Strain/Indicator: THY INCORP, Metabolic Activation: NONE, Method: AUTORADIOGRAPHY) was “active; positive”. The mutagenic call (Test System: UDS MONKEY HEPATOCYTES, Strain/Indicator: THY INCORP, Metabolic Activation: NONE, Method: AUTORADIOGRAPHY) was “inactive; negative”, the mutagenic call (Test System: UDS MOUSE HEPATOCYTES, Strain/Indicator: THY INCORP, Metabolic Activation: NONE, Method: LIQUID SCINTILLATION COUNTING) was “inactive; negative” and the mutagenic call (Test System: UDS RAT HEPATOCYTES, Strain/Indicator: BROMODEOXYURIDINE INCORP, Metabolic Activation: NONE, Method: FLOW CYTOMETRIC ANALYSIS) was “active; positive”. The mutagenic call (Test System: UDS RAT HEPATOCYTES, Strain/Indicator: THY INCORP, Metabolic Activation: AROCLOR 1254, Method: AUTORADIOGRAPHY) was “active; positive”, the mutagenic call (Test System: UDS RAT HEPATOCYTES, Strain/Indicator: THY INCORP, Metabolic Activation: NONE, Method: AUTORADIOGRAPHY) was “active; positive” and the mutagenic call (Test System: UDS RAT HEPATOCYTES, Strain/Indicator: THY INCORP, Metabolic Activation: NONE, Method: AUTORADIOGRAPHY (SERUM-FREE MEDIA)) was “active; positive”. The mutagenic call (Test System: UDS RAT HEPATOCYTES, Strain/Indicator: THY INCORP, Metabolic Activation: NONE, Method: IN VIVO) was “active; positive”, the mutagenic call (Test System: UDS RAT HEPATOCYTES, Strain/Indicator: THY INCORP, Metabolic Activation: NONE, Method: LIQUID SCINTILLATION) was “active; positive” and the mutagenic call (Test System: UDS RAT HEPATOCYTES, Strain/Indicator: THY INCORP, Metabolic Activation: NONE, Method: LIQUID SCINTILLATION COUNTING) was “active; positive”. For the same molecule, the mutagenic call (Test System: UDS RODENT HEPATOCYTES, Strain/Indicator: THY INCORP (NON-S-PHASE), Metabolic Activation: NONE, Method: AUTORADIOGRAPHY) was “active; positive”, the mutagenic call (Test System: UDS RODENT HEPATOCYTES, Strain/Indicator: THY INCORP (NON-S-PHASE), Method: AUTORADIOGRAPHY) was “active; positive” and the mutagenic call (Test System: UDS RODENT HEPATOCYTES, Strain/Indicator: THY INCORP (NON-S-PHASE), Method: LIQUID SCINTILLATION COUNTING) was “active; positive”. The mutagenic call (Test System: UDS, Strain/Indicator: HEPG2/THYMIDINE INCORPORATION, Metabolic Activation: NONE, Method: AUTORADIOGRAPHY) was “active; positive”.
